Where two headings read alike, the source gives them in different places.
Experiments:
[1] = system: Inflammatory mediator NO; assay: Inhibition of nitric oxide synthesis in LPS-stimulated RAW264.7 macrophages (Griess reaction); assay type: cell-based, murine; details: for IC50: Mus musculus; for anti-inflammatory activity (in words): NO inhibition
Description: The anti-inflammatory effects were determined in cellular assays by measuring the inhibition of the synthesis of nitric oxide and/or pro-inflammatory prostaglandins (PGE2). PGE2 plays a critical role in the inflammation process, while nitric oxide (NO) is a hallmark of inflammation in various chronic inflammatory diseases including various forms of arthritis, gastro-intestinal diseases and metabolic syndrome X. The effects on the inflammatory response were tested in cellular assays using a murine macrophage cell line, RAW264.7. The cells were purchased from ATCC (Manassas, Va., USA) and cultured in DMEM containing streptomycin/penicillin, non-essential amino acids and 10% fetal calf serum (FCS). In order to test a large range of concentration of MA and HO as well as mixtures thereof, cells (˜50'000/well) were seeded into flat-bottomed microtiter plates and cultured for one day. Cells were then starved in complete medium containing 0.25% FCS (D-025). After overnight culture, medium was removed and replaced by 100 μL of D-025 containing the test compounds at twice the final concentration. Subsequently, 100 μL of D-025 containing 2 μg/ml LPS was added (i.e. final LPS concentration of 1 μg/ml) and the cells cultured for 24 hours. Substances were usually tested in a concentration range from 0.2 to 50 μM in two-fold dilution steps. All treatments were done in duplicates and several experimental series were done for each treatment. Concentrations of nitrite which was rapidly formed from nitric oxide released by cells were determined by the Griess reaction using sodium nitrite as standard. Briefly, 50 μl of supernatant was mixed with Griess reagent 1 (25 μL) and Griess reagent 2 (25 μL), centrifuged and the optical density at 540 nm determined. PGE2 secreted into the cell culture medium was determined by EIA obtained from Cayman Chemicals (Ann Harbor, Wis., USA) and used according to the manufacturer's instructions. All determinations were done in duplicates and at various dilutions of the culture supernatant. IC50 values for LPS-stimulated cells were calculated using a […] least-square fitting equation [y=A+((B−A)/(1+((C−x)̂D))] for best-fit curves (Excel fit software program).
In order to determine the synergistic concentration range of MA to HO, various mixtures thereof were tested for their anti-inflammatory by measuring the inhibition of the synthesis of nitric oxide (NO) as outlined above.
The synergistic effect of a combination of a mixture of MA/HO (1:3 w/w) with glucosamine sulfate (ratio MA/HO (1:3 w/w) to glucosamine sulfate: 50 μmol/L to 50 μmol/L) or chondroitin sulfate (ratio MA/HO (1:3 w/w) to chondroitin sulfate: 13.3 mg/L (i.e. 50 μmol/L) to 500 mg/L) on the inhibition of the inflammatory mediator nitric oxide (NO) has been evaluated based on the method published by Chou and Talalay (A simple generalized equation for the analysis of multiple inhibitions of Michealis-Menten kinetic systems. J. Biol. Chem. 1977. 252: 6438-6442).

[2] = system: Collagen I; assay: Gene expression in normal human chondrocytes, RT-PCR; assay type: cell-based; details: for Expression level (%) Collagen I: at 12.5 μmol/L, 4 hours, % of unstimulated cells (100%)
[3] = system: TIMP-1; assay: as above; assay type: cell-based; details: for Expression level (%) TIMP-1: at 12.5 μmol/L, 4 hours, % of unstimulated cells (100%)
Description: [Worded in the source for another target; this target is reported under the same test.] (§1) The effect of MA and HO, mixtures thereof as well as combinations with glucosamine sulfate and chondroitin sulfate on the expression of human aggrecan, collagen I, collagen II, or chondrocyte transcription factors (SOX-6, -9) was measured in vitro in normal human chondrocytes (derived from knee) (CC-2550; Cambrex, respectively). A control experiment without the compounds was done concomitantly to compare the expression of these genes (percentage expression of gene in controls was set to 100%).

[4] = system: Aggrecan; assay: as above; assay type: cell-based; details: 4 hrs
Description: as §1

[5] = system: Collagen II; assay: as above; assay type: cell-based; details: 4 hrs; 50 μmol/L
[6] = system: ADAMTS-4; assay: as above; assay type: cell-based; details: unstim. 4 d; 50 μmol/L
[7] = system: MMP-9; assay: as above; assay type: cell-based; details: stim. 4 hrs; 50 μmol/L
[8] = system: Inflammatory mediator PGE2; assay: Inhibition of PGE2 synthesis in LPS-stimulated RAW264.7 macrophages (EIA); assay type: cell-based, murine; details: Mus musculus, read-out: IC50 Observed, inflammatory mediator PGE2
Description: The anti-inflammatory effects were determined in cellular assays by measuring the inhibition of the synthesis of nitric oxide and/or pro-inflammatory prostaglandins (PGE2). […] The cells were purchased from ATCC (Manassas, Va., USA) and cultured in DMEM containing streptomycin/penicillin, non-essential amino acids and 10% fetal calf serum (FCS). […] Cells were then starved in complete medium containing 0.25% FCS (D-025). After overnight culture, medium was removed and replaced by 100 μL of D-025 containing the test compounds at twice the final concentration. Subsequently, 100 μL of D-025 containing 2 μg/ml LPS was added (i.e. final LPS concentration of 1 μg/ml) and the cells cultured for 24 hours. […] Concentrations of nitrite which was rapidly formed from nitric oxide released by cells were determined by the Griess reaction using sodium nitrite as standard. Briefly, 50 μl of supernatant was mixed with Griess reagent 1 (25 μL) and Griess reagent 2 (25 μL), centrifuged and the optical density at 540 nm determined. PGE2 secreted into the cell culture medium was determined by EIA obtained from Cayman Chemicals (Ann Harbor, Wis., USA) and used according to the manufacturer's instructions. […] IC50 values for LPS-stimulated cells were calculated using a two-parametric least-square fitting equation [y=A+((B−A)/(1+((C−x)̂D))] for best-fit curves (Excel fit software program).

[9] = system: SOX-9; assay: Gene expression in normal human chondrocytes, RT-PCR; assay type: cell-based; details: for Expression level (%) SOX-9: at 12.5 μmol/L, 4 hours, % of unstimulated cells (100%)
Description: as §1

[10] = system: SOX-6; assay: as above; assay type: cell-based; details: at 12.5 μmol/L, 4 hours; % of unstimulated cells (100%)
[11] = system: I-κBalpha; assay: Inflammatory gene expression in RAW 264.7 cells, quantitative RT-PCR; assay type: cell-based, murine; details: at 12.5 μmol/L, 4 hours; relative to LPS-stimulated cells (100%)
From the text: (§2) Inflammatory responses are orchestrated by the transient activation of a variety of genes. Their regulation is tightly controlled via signaling pathways and eventually proteins that control the expression of genes such as transcription factors. Consequently, the effect of the compounds (each of them and various ratios of mixtures) has also been evaluated at the level of the expression of genes that are involved in the inflammatory response. These comprise genes of the prostaglandin synthesis pathway (e.g. COX-2), interleukins (e.g. IL1-α, IL-1β, IL-6), cytokines (e.g. TNF-α), inducible nitric oxide synthase (iNOS) and chemokines. RAW 264.7 cells were stimulated in the presence of different concentrations of substances. After 4 hours, RNA was extracted and the expression of genes determined by quantitative RT-PCR as described by Richard, […]. and […]. in Mol Nutr Food Res 2005. 49: 431-442. In table 3, the effect of MA and HO alone as well as of mixtures thereof in the indicated molar ratios on the expression of inflammatory genes or on anti-inflammatory transcription factors (I-κBα) is shown. The level of mRNA was determined by RT-PCR and expressed relative to the level observed in LPS-stimulated cells (i.e. without compounds).

[12] = system: IL-10; assay: as above; assay type: cell-based, murine; details: at 12.5 μmol/L, 4 hours; relative to LPS-stimulated cells (100%)
From the text: as §2

[13] = system: TNF-alpha; assay: as above; assay type: cell-based, murine; details: at 12.5 μmol/L, 4 hours; relative to LPS-stimulated cells (100%)
From the text: as §2

[14] = system: IL-1alpha; assay: as above; assay type: cell-based, murine; details: at 12.5 μmol/L, 4 hours; relative to LPS-stimulated cells (100%)
From the text: as §2

[15] = system: IL-RI Receptor for Il-1; assay: Gene expression in normal human chondrocytes, RT-PCR; assay type: cell-based; details: at 12.5 μmol/L, 4 hours; control set at 100%
[16] = system: normal human chondrocytes; assay: Effects on chondrocytes (cartilage build-up), overall gene expression; assay type: cell-based; details: 12.5 μmol/L, un- (non-IL1 beta-) stimulated cells
Description: as §1
In table 2.1 the effect of MA and HO alone as well as of mixtures thereof in the indicated molar ratios on the expression of genes that are involved in cartilage build-up is shown.

[17] = system: ADAMTS-5; assay: Gene expression in normal human chondrocytes, RT-PCR; assay type: cell-based; details: stim. 4 hrs; 500 mg/L; % of IL1β-treated cells
Description: [Worded in the source for another target; this target is reported under the same test.] as §1

[18] = system: MMP-2; assay: as above; assay type: cell-based; details: 4 d; 500 mg/L; % of IL1β-treated cells
[19] = LPS 1 μg/ml, 24 hours, RAW264.7, read-out: IC50 Observed, inflammatory mediator NO

For N[C@H]1C(O)O[C@H](CO)[C@@H](O)[C@@H]1O.O=S(=O)(O)O (stereo partly drawn) [Glucosamine sulfate, glucosamine sulfate], the IC50 ([1]; single substance, LPS-stimulated RAW264.7, read-out: IC50 Nitric Oxide) was > 100 µM, the “anti-inflammatory activity (in words)” value ([1]; single substance) was “marginal anti-inflammatory” and the “level of gene expression Collagen 1” value ([2]; 4 hrs, 50 μmol/L) was 121%. The “level of gene expression TIMP-1” value ([3]; 4 hrs, 50 μmol/L) was 110%, the “level of gene expression Aggrecan” value ([4]; 50 μmol/L) was 81% and the “level of gene expression Collagen II” value [5] was 154%. The “level of gene expression ADAMTS-4” value [6] was 101% and the “level of gene expression MMP-9” value [7] was 114%.

In the case of C=CCc1ccc(O)c(-c2ccc(O)c(CC=C)c2)c1 [HO, 3′,5-Diallyl-2,4′-biphenyldiol], the IC50 [1, 19] is reported as 4.58 µM, the “Expression level (%) Collagen I” value [2] is reported as 100% and the IC50 ([8]; LPS 1 μg/ml, 24 hours, RAW264.7) is reported as 2.05 µM. The “Expression level (%) TIMP-1” value [3] was 106%, the “Expression level (%) SOX-9” value [9] was 124% and the “Expression level (%) SOX-6” value [10] was 130%. For the same compound, the “Expression level (%) I-κBalpha” value [11] was 96%, the “Expression level (%) IL-10” value [12] was 94% and the “Expression level (%) TNF-alpha” value [13] was 81%. The “Expression level (%) IL-1alpha” value [14] was 68%, the “Expression level (%) IL-RI (Receptor for Il-1)” value [15] was 89% and the “cartilage build-up effect (in words)” value [16] was “favors cartilage build-up”.

For C=CCc1ccc(O)c(-c2cc(CC=C)ccc2O)c1 [MA, 5,5′-Diallyl-2,2′-biphenyldiol], the IC50 [1, 19] was 8.91 µM, the “Expression level (%) Collagen I” value [2] was 78% and the IC50 ([8]; RAW264.7, 24 h) was 5.09 µM. The “Expression level (%) TIMP-1” value [3] was 96%, the “Expression level (%) SOX-9” value [9] was 110% and the “Expression level (%) SOX-6” value [10] was 94%. For the same compound, the “Expression level (%) I-κBalpha” value [11] was 99%, the “Expression level (%) IL-10” value [12] was 136% and the “Expression level (%) TNF-alpha” value [13] was 96%. The “Expression level (%) IL-1alpha” value [14] was 70%, the “Expression level (%) IL-RI (Receptor for Il-1)” value [15] was 98% and the “cartilage build-up effect (in words)” value [16] was “to lesser extent”.

Chondroitin sulfate was tested, and the “IC50 Nitric Oxide” value ([1]; single substance, LPS-stimulated RAW264.7) was >50 µg/mL, the “anti-inflammatory activity (in words)” value ([1]; single substance) was “marginal anti-inflammatory” and the “level of gene expression TIMP-1” value ([3]; unstim., 4 d, 500 mg/L) was 106%. For the same compound, the “level of gene expression SOX-9” value ([9]; 500 mg/L, % of unstimulated cells) was 147%, the “level of gene expression Aggrecan” value ([4]; stim., 500 mg/L) was 62% and the “level of gene expression ADAMTS-5” value [17] was 107%. The “level of gene expression MMP-2” value [18] was 93%.

— patent publication US20090156551A1, “NOVEL COMPOSITION” (priority 2007, published 2009)
